Data set [1] addresses bovine cytosolic carbonic anhydrase II (bCA II) (Bos taurus, UniProt P00921). Put plainly: In vitro carbonic anhydrase inhibition assay (p-nitrophenyl acetate hydrolysis). The settings on record: for IC50: mean of three independent experiments ± SEM; for inhibition at 500 µM: at 0.5 mM concentration of tested compounds, mean ± SEM. In kind it is biochemical. As to the method:
Carbonic anhydrase inhibition was measured by the reported method after standardization of reaction conditions such as concentration of enzyme and substrate, buffer pH, and duration of reaction. The method is based on spectrophotometric determination p-nitrophenol, the CA catalyzed hydrolysis product of p-nitrophenyl acetate. The reaction mixture consisted of 60 μL of 50 mM Tris-sulfate buffer (pH 7.6, containing 0.1 mM ZnCl2), 10 μL (0.5 mM) test compound in 1% DMSO, and 10 μL (50 U) bovine enzyme per well. […] Substrate, p-nitrophenyl acetate (6 mM stock using <5% acetonitrile in buffer), 20 μL was freshly prepared and added per well to achieve […] concentration per well. Total reaction volume was made to 100 μL.
The CA active site residues involved in direct zinc binding are His94, His96, and His119. In addition the substrate (CO2) association pocket, Thr199 loop, and the histidine proton shuttle mechanism (for regeneration of active site Zn bound hydroxide ion) are essential for CA catalytic activity and are highly conserved in all alpha class CAs. For this reason initial screening against bCA-II was carried out.

For orientation: melting point means the temperature, or range, at which the solid turns liquid. Broadly, the IC50 is the concentration that inhibits the measured activity by half. The low end stands for greater potency in that assay, the high end for weaker potency in that assay. In general, inhibition refers to the change of the read-out against control, counted positive when it falls. Read a low inhibition as a weak effect.

Chain of bovine cytosolic carbonic anhydrase II (bCA II) (P00921 whole entry): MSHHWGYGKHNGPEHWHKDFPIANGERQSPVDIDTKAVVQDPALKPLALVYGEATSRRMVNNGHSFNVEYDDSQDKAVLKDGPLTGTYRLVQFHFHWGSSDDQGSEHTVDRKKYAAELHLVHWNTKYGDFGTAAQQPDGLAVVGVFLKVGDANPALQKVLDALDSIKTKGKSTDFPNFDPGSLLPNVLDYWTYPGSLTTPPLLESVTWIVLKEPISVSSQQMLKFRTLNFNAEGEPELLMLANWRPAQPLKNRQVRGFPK

Compound `Cc1ccnc(NS(=O)(=O)c2ccc(Nc3nc(Cl)nc(Cl)n3)cc2)n1` [1a, 4-[(4,6-Dichloro-1,3,5-triazin-2-yl)amino]-N-(4-methylpyrimidin-2-yl)benzenesulfonamide] came in with a melting point of 235 to 237 °C. In data set [1], this compound yielded an IC50 of 4.14 ± 0.02 µM.
For `O=S(=O)(Nc1cnc2ccccc2n1)c1ccc(Nc2nc(Cl)nc(Cl)n2)cc1` [2a, 4-[(4,6-Dichloro-1,3,5-triazin-2-yl)amino]-N-(quinoxalin-2-yl)benzenesulfonamide], in that order: 268 to 270 °C and 105.3 ± 0.16 µM.
As for `Nc1ccc(S(=O)(=O)Nc2cnc3ccccc3n2)cc1` [2b, sulfaquinoxaline, reference compound], at 500 µM the inhibition in data set [1] was 51.8%.
`O=S(=O)(Nc1ncccn1)c1ccc(Nc2nc(Cl)nc(Cl)n2)cc1` [3a, 4-[(4,6-Dichloro-1,3,5-triazin-2-yl)amino]-N-(pyrimidin-2-yl)benzenesulfonamide] showed a melting point of 221 to 223 °C. In data set [1], this compound registered an IC50 of 24.9 ± 0.03 µM.
Take `Cc1cc(C)nc(NS(=O)(=O)c2ccc(Nc3nc(Cl)nc(Cl)n3)cc2)n1` [4a, 4-[(4,6-Dichloro-1,3,5-triazin-2-yl)amino]-N-(4,6-dimethylpyrimidin-2-yl)benzenesulfonamide]: the melting point is 327 to 329 °C. In data set [1], this compound registered an IC50 of 14.9 ± 0.02 µM.
Take `Cc1cc(C)nc(NS(=O)(=O)c2ccc(N)cc2)n1` [4b, sulfadimidine, reference compound]: at 500 µM the inhibition in data set [1] was 41.7%.
In turn, `O=S(=O)(Nc1cncc(Cl)n1)c1ccc(Nc2nc(Cl)nc(Cl)n2)cc1` [5a, N-(6-Chloropyrazin-2-yl)-4-[(4,6-dichloro-1,3,5-triazin-2-yl)amino]benzenesulfonamide] registered a melting point of 236 to 238 °C. Besides, inhibition in data set [1] was half-maximal at 1.49 ± 0.006 µM (IC50).
Turning to `Nc1ccc(S(=O)(=O)Nc2cncc(Cl)n2)cc1` [5b, sulfachloropyrazine, reference compound], the inhibition at 500 µM in data set [1] was determined as 42.4%.
